Measurements taken from ChEMBL document CHEMBL5096150, “Development and Therapeutic Potential of NUAKs Inhibitors” (J Med Chem, 2021).
One block for each molecule: values may come before it.

Key:
[1] = biological target: T1, NUAK family SNF1-like kinase 2 (Homo sapiens, UniProt Q9H093); assay: Inhibition of NUAK2 (unknown origin)
T1 sequence (Q9H093 whole entry): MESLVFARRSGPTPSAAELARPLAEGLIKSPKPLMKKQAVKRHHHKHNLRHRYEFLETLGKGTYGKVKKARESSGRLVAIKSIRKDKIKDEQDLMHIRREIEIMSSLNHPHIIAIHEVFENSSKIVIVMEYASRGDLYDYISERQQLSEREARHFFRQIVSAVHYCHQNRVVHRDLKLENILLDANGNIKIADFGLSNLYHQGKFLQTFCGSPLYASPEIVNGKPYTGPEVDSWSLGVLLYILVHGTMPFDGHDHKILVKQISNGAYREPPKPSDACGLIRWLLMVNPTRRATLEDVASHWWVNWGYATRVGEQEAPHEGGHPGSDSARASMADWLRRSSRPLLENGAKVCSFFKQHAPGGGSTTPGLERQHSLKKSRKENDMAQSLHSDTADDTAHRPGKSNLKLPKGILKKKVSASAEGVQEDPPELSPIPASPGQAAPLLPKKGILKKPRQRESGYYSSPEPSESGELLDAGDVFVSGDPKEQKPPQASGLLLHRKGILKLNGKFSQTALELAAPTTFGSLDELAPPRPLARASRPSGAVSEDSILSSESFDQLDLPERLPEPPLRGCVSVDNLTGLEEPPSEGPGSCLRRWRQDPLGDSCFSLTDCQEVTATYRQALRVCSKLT

[2] = biological target: T2, NUAK family SNF1-like kinase 1 (Homo sapiens, UniProt O60285); assay: Inhibition of N-terminal GST-tagged wild type human NUAK1 expressed in Escherichia coli DH5alpha incubated for 30 mins in presence of gamma-[32P]ATP by cerenkov counting analysis
T2 sequence (O60285 whole entry): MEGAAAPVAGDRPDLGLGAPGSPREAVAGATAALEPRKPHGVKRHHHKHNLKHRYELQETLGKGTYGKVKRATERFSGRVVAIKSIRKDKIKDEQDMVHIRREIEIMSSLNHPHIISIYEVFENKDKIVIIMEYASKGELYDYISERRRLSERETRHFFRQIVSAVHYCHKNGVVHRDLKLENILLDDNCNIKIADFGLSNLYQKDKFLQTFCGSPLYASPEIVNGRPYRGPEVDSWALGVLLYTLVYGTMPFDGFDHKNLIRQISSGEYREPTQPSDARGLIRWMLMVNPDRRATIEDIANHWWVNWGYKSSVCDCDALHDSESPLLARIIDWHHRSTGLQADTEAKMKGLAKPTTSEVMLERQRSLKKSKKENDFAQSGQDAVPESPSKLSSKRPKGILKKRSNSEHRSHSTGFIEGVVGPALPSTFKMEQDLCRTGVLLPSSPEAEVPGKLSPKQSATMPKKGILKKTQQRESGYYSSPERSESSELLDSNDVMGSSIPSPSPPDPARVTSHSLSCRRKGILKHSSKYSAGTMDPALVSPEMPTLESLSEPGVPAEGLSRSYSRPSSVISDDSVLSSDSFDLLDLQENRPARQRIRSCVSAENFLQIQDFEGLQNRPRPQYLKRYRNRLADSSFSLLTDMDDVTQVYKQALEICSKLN

Aurora kinase C = biological target: T3, Aurora kinase C (Homo sapiens, UniProt Q9UQB9); assay: Inhibition of Aurora C (unknown origin)
T3 sequence (Q9UQB9 whole entry): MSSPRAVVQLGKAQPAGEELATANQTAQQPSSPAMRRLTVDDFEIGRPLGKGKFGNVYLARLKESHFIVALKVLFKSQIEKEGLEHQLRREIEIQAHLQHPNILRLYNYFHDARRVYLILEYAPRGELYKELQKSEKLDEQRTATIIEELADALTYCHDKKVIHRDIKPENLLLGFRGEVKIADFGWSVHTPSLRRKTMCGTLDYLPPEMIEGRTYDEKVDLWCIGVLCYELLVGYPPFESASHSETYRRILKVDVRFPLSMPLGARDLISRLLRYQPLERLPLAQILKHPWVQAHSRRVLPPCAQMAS

[3] = biological target: T2, NUAK family SNF1-like kinase 1; assay: Inhibition of NUAK1 in HEK293 cells assessed as effect on MYPT1 phosphorylation at Ser445 incubated for 3 mins by immunoblotting analysis; type: cell-based
Aurora kinase B = Aurora kinase B (Homo sapiens, UniProt Q96GD4); assay: Inhibition of Aurora B (unknown origin)
Aurora kinase B, sequence (Q96GD4 whole entry): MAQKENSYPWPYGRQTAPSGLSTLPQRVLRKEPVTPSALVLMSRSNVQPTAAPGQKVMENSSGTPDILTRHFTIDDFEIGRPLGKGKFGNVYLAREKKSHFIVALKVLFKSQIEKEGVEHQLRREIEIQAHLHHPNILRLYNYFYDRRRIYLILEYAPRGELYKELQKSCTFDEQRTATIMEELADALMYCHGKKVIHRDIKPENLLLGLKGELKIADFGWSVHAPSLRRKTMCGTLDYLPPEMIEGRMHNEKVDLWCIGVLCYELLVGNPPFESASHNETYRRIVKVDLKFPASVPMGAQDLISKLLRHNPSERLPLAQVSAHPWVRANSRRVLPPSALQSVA

[4] = Inhibition of N-terminal GST-tagged human NUAK1 A195T mutant expressed in Escherichia coli DH5alpha incubated for 30 mins in presence of gamma-[32P]ATP by cerenkov counting analysis
[5] = biological target: T4, NUAK family SNF1-like kinase 1 (Homo sapiens) (UniProt O60285); assay: Inhibition of NUAK1 (unknown origin) at 0.10 uM relative to control; details: dose 0.1 µM
T4 sequence (whole entry): T2 sequence (O60285 whole entry)

[6] = biological target: T4, NUAK family SNF1-like kinase 1 (Homo sapiens); assay: Inhibition of NUAK1 (unknown origin) at 1 uM relative to control
[7] = biological target: T4, NUAK family SNF1-like kinase 1 (Homo sapiens); assay: Inhibition of NUAK1 (unknown origin) at 0.01 uM relative to control
Insulin receptor [8] = biological target: T5, Insulin receptor (Homo sapiens, UniProt P06213); assay: Binding affinity to human InsR expressed in mouse IGF1R knockout MEF cells assessed as dissociation constant; type: cell-based
T5 sequence (P06213 28-758 limits assumed): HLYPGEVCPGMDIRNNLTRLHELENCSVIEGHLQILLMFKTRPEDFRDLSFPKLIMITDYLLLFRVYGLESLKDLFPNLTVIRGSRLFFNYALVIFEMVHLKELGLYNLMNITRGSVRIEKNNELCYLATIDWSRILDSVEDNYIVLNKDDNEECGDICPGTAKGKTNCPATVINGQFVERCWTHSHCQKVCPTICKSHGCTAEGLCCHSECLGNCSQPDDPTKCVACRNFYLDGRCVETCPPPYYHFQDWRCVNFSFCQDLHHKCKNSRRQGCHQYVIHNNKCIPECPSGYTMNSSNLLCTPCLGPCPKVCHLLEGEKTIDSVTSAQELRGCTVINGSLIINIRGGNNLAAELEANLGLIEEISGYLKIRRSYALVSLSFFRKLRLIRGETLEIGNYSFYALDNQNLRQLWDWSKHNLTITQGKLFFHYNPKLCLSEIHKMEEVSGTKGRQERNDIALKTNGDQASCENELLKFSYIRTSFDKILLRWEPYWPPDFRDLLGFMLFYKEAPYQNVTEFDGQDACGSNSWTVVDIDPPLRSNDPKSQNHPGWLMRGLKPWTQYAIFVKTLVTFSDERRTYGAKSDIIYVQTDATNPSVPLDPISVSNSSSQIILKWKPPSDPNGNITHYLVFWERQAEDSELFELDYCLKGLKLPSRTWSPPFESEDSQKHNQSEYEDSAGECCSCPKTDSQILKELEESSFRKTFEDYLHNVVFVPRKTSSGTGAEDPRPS
T5 sequence (P06213 763-1382 limits assumed): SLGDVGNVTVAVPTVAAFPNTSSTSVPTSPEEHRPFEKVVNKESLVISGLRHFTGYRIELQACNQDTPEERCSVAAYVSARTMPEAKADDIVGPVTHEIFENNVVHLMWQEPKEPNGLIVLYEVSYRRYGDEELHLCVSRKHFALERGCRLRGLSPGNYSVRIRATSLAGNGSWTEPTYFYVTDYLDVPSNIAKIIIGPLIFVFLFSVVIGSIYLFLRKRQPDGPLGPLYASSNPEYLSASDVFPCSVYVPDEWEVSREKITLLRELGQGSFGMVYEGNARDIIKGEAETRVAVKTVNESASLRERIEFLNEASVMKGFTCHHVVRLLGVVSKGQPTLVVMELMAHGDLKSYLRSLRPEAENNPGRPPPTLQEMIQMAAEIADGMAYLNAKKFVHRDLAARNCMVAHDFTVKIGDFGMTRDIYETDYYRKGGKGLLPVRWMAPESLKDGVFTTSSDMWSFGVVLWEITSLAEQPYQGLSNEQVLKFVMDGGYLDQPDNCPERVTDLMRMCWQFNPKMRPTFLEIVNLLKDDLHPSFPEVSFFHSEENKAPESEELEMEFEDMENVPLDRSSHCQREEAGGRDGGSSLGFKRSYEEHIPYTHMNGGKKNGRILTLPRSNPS

Insulin receptor [9] = biological target: T5, Insulin receptor; assay: Inhibition of human InsR expressed in mouse IGF1R knockout MEF cells; type: cell-based
[10] = biological target: T6, Insulin-like growth factor 1 receptor (Homo sapiens, UniProt P08069); assay: Binding affinity to human IGF1R expressed in mouse IGF1R knockout MEF cells assessed as dissociation constant; type: cell-based
T6 sequence (P08069 31-736 limits assumed): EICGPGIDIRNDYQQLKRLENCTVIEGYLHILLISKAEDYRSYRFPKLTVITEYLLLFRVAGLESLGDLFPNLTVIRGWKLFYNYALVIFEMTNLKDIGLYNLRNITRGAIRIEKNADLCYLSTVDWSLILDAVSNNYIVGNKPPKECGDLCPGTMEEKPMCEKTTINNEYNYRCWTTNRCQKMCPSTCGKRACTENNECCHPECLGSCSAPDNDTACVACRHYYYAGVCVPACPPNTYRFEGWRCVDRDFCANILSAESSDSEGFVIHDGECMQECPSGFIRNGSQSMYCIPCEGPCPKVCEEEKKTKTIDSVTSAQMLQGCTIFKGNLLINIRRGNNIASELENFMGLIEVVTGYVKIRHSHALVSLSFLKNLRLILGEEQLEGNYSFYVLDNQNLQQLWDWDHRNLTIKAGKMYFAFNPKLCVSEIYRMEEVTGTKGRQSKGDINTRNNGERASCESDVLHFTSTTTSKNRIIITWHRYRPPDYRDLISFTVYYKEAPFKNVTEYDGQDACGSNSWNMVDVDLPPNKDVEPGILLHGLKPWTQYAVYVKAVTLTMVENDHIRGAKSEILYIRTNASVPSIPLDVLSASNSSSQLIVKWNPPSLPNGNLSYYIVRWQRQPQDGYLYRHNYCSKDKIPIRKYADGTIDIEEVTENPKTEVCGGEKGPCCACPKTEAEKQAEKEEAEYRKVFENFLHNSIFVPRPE
T6 sequence (P08069 741-1367 limits assumed): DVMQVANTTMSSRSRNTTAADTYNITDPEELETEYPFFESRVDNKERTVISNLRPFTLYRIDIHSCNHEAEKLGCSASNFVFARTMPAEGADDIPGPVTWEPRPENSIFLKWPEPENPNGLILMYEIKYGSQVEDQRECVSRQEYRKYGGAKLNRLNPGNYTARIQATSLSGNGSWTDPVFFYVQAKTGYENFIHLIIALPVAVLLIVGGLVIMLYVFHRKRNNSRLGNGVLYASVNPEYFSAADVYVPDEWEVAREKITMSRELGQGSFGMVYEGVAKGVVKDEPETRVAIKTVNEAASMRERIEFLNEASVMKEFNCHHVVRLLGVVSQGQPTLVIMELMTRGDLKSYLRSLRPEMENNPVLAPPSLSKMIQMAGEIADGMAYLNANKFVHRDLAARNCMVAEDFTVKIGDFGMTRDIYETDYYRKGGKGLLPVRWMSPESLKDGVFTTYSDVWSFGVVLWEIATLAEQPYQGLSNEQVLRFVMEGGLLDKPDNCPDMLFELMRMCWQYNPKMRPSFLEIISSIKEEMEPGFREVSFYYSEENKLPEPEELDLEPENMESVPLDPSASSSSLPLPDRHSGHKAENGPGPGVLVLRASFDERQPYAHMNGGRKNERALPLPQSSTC

[11] = biological target: T2, NUAK family SNF1-like kinase 1; assay: Inhibition of NUAK1 (unknown origin)
[12] = biological target: T6, Insulin-like growth factor 1 receptor; assay: Inhibition of human IGF1R expressed in mouse IGF1R knockout MEF cells; type: cell-based
[13] = biological target: Proto-oncogene tyrosine-protein kinase receptor Ret (Homo sapiens, UniProt P07949); assay: Inhibition of RET (unknown origin)
Proto-oncogene tyrosine-protein kinase receptor Ret, sequence (P07949 whole entry): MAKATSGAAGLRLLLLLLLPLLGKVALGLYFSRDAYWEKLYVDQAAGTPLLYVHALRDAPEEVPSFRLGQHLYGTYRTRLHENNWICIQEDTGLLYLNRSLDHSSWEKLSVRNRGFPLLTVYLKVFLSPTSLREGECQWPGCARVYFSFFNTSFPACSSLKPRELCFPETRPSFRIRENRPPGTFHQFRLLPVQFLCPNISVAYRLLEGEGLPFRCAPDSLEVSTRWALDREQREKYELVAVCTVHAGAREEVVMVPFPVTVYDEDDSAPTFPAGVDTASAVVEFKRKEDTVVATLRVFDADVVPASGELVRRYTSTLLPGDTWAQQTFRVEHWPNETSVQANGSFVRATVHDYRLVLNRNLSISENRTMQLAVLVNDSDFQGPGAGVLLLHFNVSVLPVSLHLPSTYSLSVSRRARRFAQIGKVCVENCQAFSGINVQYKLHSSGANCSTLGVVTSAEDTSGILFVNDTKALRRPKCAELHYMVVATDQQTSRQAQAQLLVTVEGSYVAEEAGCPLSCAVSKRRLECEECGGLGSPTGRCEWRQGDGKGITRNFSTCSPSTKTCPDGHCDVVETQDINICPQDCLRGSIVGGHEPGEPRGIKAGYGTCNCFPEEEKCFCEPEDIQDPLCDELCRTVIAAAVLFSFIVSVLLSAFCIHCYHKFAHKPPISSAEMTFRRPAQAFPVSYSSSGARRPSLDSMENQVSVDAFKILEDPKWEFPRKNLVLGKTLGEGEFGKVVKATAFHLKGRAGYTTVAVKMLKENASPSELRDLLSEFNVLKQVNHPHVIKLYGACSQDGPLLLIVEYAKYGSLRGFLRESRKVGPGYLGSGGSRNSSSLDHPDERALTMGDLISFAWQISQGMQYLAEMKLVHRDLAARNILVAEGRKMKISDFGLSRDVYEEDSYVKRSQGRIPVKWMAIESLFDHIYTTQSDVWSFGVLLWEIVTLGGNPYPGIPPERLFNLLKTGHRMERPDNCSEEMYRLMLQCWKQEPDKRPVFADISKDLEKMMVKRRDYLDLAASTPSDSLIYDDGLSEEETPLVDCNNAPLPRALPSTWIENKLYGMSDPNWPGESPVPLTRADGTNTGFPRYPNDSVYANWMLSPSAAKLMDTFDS

[14] = biological target: Cyclin-dependent kinase 4 (Homo sapiens) (UniProt P11802); assay: Inhibition of CDK4 (unknown origin)
Cyclin-dependent kinase 4 (Homo sapiens), sequence (P11802 whole entry): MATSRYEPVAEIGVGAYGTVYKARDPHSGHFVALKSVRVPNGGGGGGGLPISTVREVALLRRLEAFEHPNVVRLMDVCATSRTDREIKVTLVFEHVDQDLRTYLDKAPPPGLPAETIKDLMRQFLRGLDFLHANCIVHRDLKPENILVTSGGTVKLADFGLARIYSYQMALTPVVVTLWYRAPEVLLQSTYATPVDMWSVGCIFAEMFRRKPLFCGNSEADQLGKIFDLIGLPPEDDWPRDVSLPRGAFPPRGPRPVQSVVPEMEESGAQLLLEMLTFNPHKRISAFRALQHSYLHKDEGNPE

SMILES: CCCC(=O)Nc1cccc(Oc2nc(Nc3ccc(N4CCN(C)CC4)cc3OC)ncc2I)c1
- IC50 [1]: 126 nM

SMILES: Cc1cc(Nc2ncc3c(n2)N(C)c2ccccc2C(=O)N3C)ccc1C(=O)N1CCN(C)CC1
- IC50 [2]: 6 nM

SMILES: CN1C(=O)c2cc3ccccc3cc2N(C)c2nc(Nc3cnn(C4CCNCC4)c3)ncc21
- IC50 (Aurora kinase C): 120 nM
- IC50 [3]: 10000 nM
- IC50 (Aurora kinase B): 54 nM

SMILES: CCC(=O)Nc1cccc(Oc2nc(Nc3ccc(N4CCN(C)CC4)cc3OC)ncc2Cl)c1
- IC50 [2]: 1.5 nM

SMILES: O=C(NCCCNc1nc(Nc2cccc(CN3CCOCC3)c2)ncc1C1CC1)C1CCC1
- IC50 [1]: 2600 nM

SMILES: CC(C)(C)NS(=O)(=O)c1cccc(Nc2nc(Nc3cnn(C4CCNCC4)c3)ncc2Cl)c1
- IC50 [2]: 67 nM

SMILES: COCCN1CCN(CCn2ccc(Nc3ncc4c(n3)C(C)Cc3nn(C)c(-c5ccccc5)c3-4)n2)CC1 (stereo not drawn)
- Kd (Insulin receptor [8]): 12 nM
- IC50 (Insulin receptor [9]): 1 nM
- Kd [10]: 9 nM
- IC50 [11]: 411 nM
- IC50 [12]: 1 nM

SMILES: Cc1nc(Nc2cnn(C3CCNCC3)c2)nc2c1N(C)C(=O)c1ccccc1N2C
- IC50 [2]: 17 nM

SMILES: C[C@@H](O)[C@@H](C)Oc1nc(Nc2ccc([S@](=N)(=O)C3CC3)cc2)ncc1C(F)(F)F [RONICICLIB]
- IC50 [11]: < 10 nM

SMILES: C=CC(=O)Nc1cccc(Oc2nc(Nc3ccc(N4CCN(C)CC4)cc3)nc3[nH]cnc23)c1
- IC50 [2]: 33 nM

SMILES: O=C(NCCCNc1nc(Nc2cccc(NC(=O)N3CCCC3)c2)ncc1I)c1cccs1 [BX-795]
- IC50 [11]: 5 nM

SMILES: C=CC(=O)Nc1cccc(Oc2nc(Nc3ccc(N4CCN(C)CC4)cc3OC)ncc2Cl)c1
- IC50 [2]: 25 nM

Continued, values first:

- IC50 [4]: 2000 nM
- IC50 [2]: 15 nM
SMILES: Cc1ccc2c(c1)C(=O)N(C)c1cnc(Nc3ccc4c(c3)NC(=O)CC4)nc1N2C

- IC50 [2]: 7 nM
SMILES: Cc1ccc2c(c1)C(=O)N(C)c1cnc(Nc3cnn(C4CCNCC4)c3)nc1N2C

- inhibition [5]: 6%
- inhibition [6]: 3%
- inhibition [7]: 35%
SMILES: Cc1cc(Nc2nc(NC(C)c3ccc(F)cc3)c(C#N)cc2F)n[nH]1 (stereo not drawn)

- IC50 [13]: 9.2 nM
- IC50 [14]: 3.9 nM
SMILES: CN1CCN(c2ccc(Nc3ncc4cc(C#N)c(=O)n(C5CCCC5)c4n3)cc2)CC1 [NARAZACICLIB]

- IC50 [11]: 64 nM
SMILES: COc1cccc(OCCCN)c1-c1cc(Nc2cnc(C#N)cn2)n[nH]1 [PREXASERTIB]

- IC50 [11]: 34.9 nM
SMILES: Fc1ccc(Cn2cnc3cc(Cl)c(Nc4cc(C5CC5)[nH]n4)nc32)cc1
